Experimental data published in PMC5138282, “Glyphosate-Resistant Parthenium hysterophorus in the Caribbean Islands: Non Target Site Resistance and Target Site Resistance in Relation to Resistance Levels” (Frontiers in Plant Science, 2016).
Like-named read-outs stand apart in the source and are kept apart here.

Experiments:
[1] = test system: 5-enolpyruvylshikimate-3-phosphate synthase (EPSPS), P. hysterophorus accessions from Dominican Republic; assay: phosphate release (EnzCheck phosphate assay kit), leaf extract; assay type: biochemical, Parthenium hysterophorus; settings: buffer as for Cu-S, read-out: I50 (μM)^a
[2] = test system: 5-enolpyruvylshikimate-3-phosphate synthase (EPSPS), P. hysterophorus accessions from Cuba; assay: as above; assay type: biochemical, Parthenium hysterophorus; settings: read-out: I50 (μM)^a
[3] = test system: 5-enolpyruvylshikimate-3-phosphate synthase (EPSPS), P. hysterophorus accessions from Cuba; settings: read-out: I50 (μM)^a; accession Cu-R1; natural mutant, native extract, other EPSPS alleles/copies not excluded; buffer as for Cu-S; stated gain
Source text: phosphate release (EnzCheck phosphate assay kit), leaf extract on 5-enolpyruvylshikimate-3-phosphate synthase (EPSPS), P. hysterophorus accessions from Cuba

[4] = test system: 5-enolpyruvylshikimate-3-phosphate synthase (EPSPS), P. hysterophorus accessions from Dominican Republic; settings: read-out: I50 (μM)^a, natural mutant, native extract, other EPSPS alleles/copies not excluded, buffer as for Cu-S, stated gain
Source text: phosphate release (EnzCheck phosphate assay kit), leaf extract on 5-enolpyruvylshikimate-3-phosphate synthase (EPSPS), P. hysterophorus accessions from Dominican Republic

With `O=C(O)CNCP(=O)(O)O` [glyphosate, (N-phosphonomethyl)-glycine] the IC50 ([1]; accession Do-R3 (resistant plants, no Pro106 change)) was 22.6 ± 1.5 µM, the IC50 ([1]; accession Do-R4 (resistant plants, no Pro106 change)) was 20.8 ± 6.1 µM and the IC50 ([1]; accession Do-S (susceptible)) was 18.5 ± 5.7 µM. It also gave an IC50 ([2]; accession Cu-R2 (resistant plants, no Pro106 change), buffer as for Cu-S) of 18.9 ± 1.4 µM, an IC50 ([2]; accession Cu-R3 (resistant plants, no Pro106 change), buffer as for Cu-S) of 17.4 ± 2.8 µM and an IC50 ([2]; accession Cu-S (susceptible), 100 mM MOPS, 1 mM MgCl2, 10% glycerol, 2 mM sodium molybdate, 200 mM NaF) of 13.6 ± 2.2 µM. The IC50 [3] was 646 ± 35.8 µM, the IC50 ([4]; accession Do-R1) was 468 ± 22 µM and the IC50 ([4]; accession Do-R2) was 411 ± 26.1 µM.
